Source: US11649229B2, “Amide compounds for treatment of immune and inflammatory disorders” (Achillion Pharmaceuticals, Inc., priority 2015, dated 2023)
pIC50: −log10 of the molar value.

Target: Human Factor D (Homo sapiens (Human), UniProt P00746)
Assay: Human Factor D assay
Type: biochemical
Settings: Human Factor D 80 nM, substrate Z-L-Lys-SBzl, assay of Example 12
Method: Human Factor D (purified from human serum, Complement Technology, Inc.) at 80 nM final concentration is incubated with test compound at various concentrations for 5 minutes at room temperature in 50 mM Tris, 1M NaCl, pH 7.5. A synthetic substrate Z-L-Lys-SBzl and DTNB (Ellman's reagent) are added to final concentrations of 100 μM each. Absorbance at 405 nm (A405) is recorded at 30 second intervals for 30 minutes using a microplate spectrophotometer. IC50 values are calculated by nonlinear regression of complement Factor D reaction rates as a function of test compound concentration.
The assay of Example 12 was used to determine the IC50's of the compounds. Other standard Factor D inhibition assays are also available.

Chain of Human Factor D (P00746 26-253): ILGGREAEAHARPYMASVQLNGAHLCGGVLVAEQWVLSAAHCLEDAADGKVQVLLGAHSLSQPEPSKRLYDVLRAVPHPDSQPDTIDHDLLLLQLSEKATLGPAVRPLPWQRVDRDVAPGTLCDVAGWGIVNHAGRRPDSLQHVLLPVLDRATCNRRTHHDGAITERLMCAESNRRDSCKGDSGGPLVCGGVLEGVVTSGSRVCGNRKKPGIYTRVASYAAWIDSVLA

Cc1cccc(NC(=O)[C@@H]2CCC(F)CCN2C(=O)Cn2cc(C(N)=O)c3cc(C(=O)NS(=O)(=O)C4CC4)ccc32)n1 (stereo partly drawn) [compound 8, N5-(cyclopropylsulfonyl)-1-(2-((2S)-5-fluoro-2-((6-methylpyridin-2-yl)carbamoyl)azepan-1-yl)-2-oxoethyl)-1H-indole-3,5-dicarboxamide]
pIC50: < 5.00
